Test results taken from patent US20220257595A1, “MACITENTAN FOR USE IN TREATING PORTOPULMONARY HYPERTENSION” (ACTELION PHARMACEUTICALS LTD, priority 2019, published 2022).

Test system: patients with PoPH
Assay: Post-hoc: liver transplant waitlist mortality risk (PVR categories)
Format: in vivo, human
Method: Post-Hoc, Exploratory Criteria: • Proportion of patients with NT-proBNP decrease from above 300 ng/L to below this threshold • Odds ratio for improvement to a more favorable liver transplant perioperative risk category • Odds ratio for becoming eligible for the MELD exception • Odds ratio for improvement to a more favorable waitlist mortality risk category
Risk categories related to liver transplant (transplant perioperative risk classification, MELD exception eligibility and waitlist mortality risk) were analyzed descriptively by treatment group using shift tables from baseline to Week 12 with categories as defined in Example 1.
LT perioperative risk classification, MELD exception eligibility, and waitlist mortality analyses were performed after the database lock and SDTMs delivery for the Double-Blind period. Number (%) of patients in following categories were summarized and presented in shift tables. The estimated odds ratio for risk improvement and corresponding 95% confidence intervals were obtained from an exact logistic regression (macitentan vs placebo) with factors for treatment and risk category at baseline.
The outcomes of PoPH patients who were granted MELD exception in the US were analyzed. […] Age, initial MELD score and initial PVR were significant predictors of waitlist mortality, although their accuracy was limited. The results were illustrated by defining 4 groups depending on their PVR and MELD score: high PVR (PVR>450 dyn·sec·cm^−5), low PVR (PVR ≤450 dyn·sec·cm^−5), high MELD (MELD >12) or low MELD (MELD ≤12).

CCCNS(=O)(=O)Nc1ncnc(OCCOc2ncc(Br)cn2)c1-c1ccc(Br)cc1 [macitentan, N-[5-(4-Bromophenyl)-6-[2-[(5-bromo-2-pyrimidinyl)oxy]ethoxy]-4-pyrimidinyl]-N′-propylsulfamide]
PVR risk categories (waitlist mortality): Week 12 Category 2 (PVR > 450 dyn · sec/cm^5) (Baseline Category 2 (n = 30), Full analysis set, 10 mg, N = 43): 9 n (%) | Odds of changing to the low waitlist mortality risk group, macitentan vs placebo (Week 12, exact logistic regression): 10.48 times | Patients moving from waitlist high-risk group (PVR >450 dyn·s·cm^−5) to low-risk group (after 12 weeks, FAS no imputation, 18 patients): 41.9% | PVR risk categories: Between-treatment odds ratio for improvement, OR (macitentan vs placebo, exact logistic regression, 95% CI 2.381, 66.810, p-value 0.0005): 10.479
